In US6399583B1, “Hybrid anthracyclines from genetically engineered streptomyces galilaeus strains, process for production and uses thereof” (Galilaeus Oy, priority 1998, dated 2002):

Experiments:
[1] = system: MES-SA human uterine sarcoma cells; assay: Cytotoxicity assay, luminescence ATP detection, MES-SA; type: cell-based; conditions: Homo sapiens, 72 h, three days incubation, ATP content, highest concentration 10^-5 M, read-out: ED50 (nM) MES-SA
Description: (§1) The cytotoxicities of the new anthracyclines were tested in vitro with two cell lines: human uterine sarcomas MES-SA (CRL-1976; American Type Culture Collection (ATCC), Rockville, Md., USA) and MES-SA/D×5 (CRL-1977; ATCC, Rockville, Md., USA). MES-SA/D×5 has been developed by growing MES-SA cells in increasing concentrations of doxorubicin (Harker and Sikic, 1985).
(§2) Monolayer cultures were grown in McCoy's 5A medium with L-glutamine (Gibco BRL) supplemented with 10% FBS (Foetal Bovine Serum, Gibco BRL). No antibiotics were added. As the resistance is stable for at least 20 passages, the MES-SA/D×5 cells were grown without anthracycline selection (Harker and Sikic, 1985). Cells were maintained at 37° C. with 5% CO2 and subcultured every 3-5 days.
(§3) The cytotoxicity tests were performed in 96-well microtiter plates (sterile white plates with clear bottom, Corning Costar Corporation, Cambridge, Mass., USA). The anthracyclines were pipetted into the plates in 10 μl of ethanol, pure ethanol was used for control plates. Daunorubicin and aclarubicin were used as positive controls. When the ethanol had evaporated, the cells were seeded into the plates in 100 μl of appropriate medium. The number of cells seeded per well was 2500 with MES-SA, 3000 with MES-SA/D×5, 3000 with LL/2, 2000 with B16-F0 and B16-F1, 2000 with KLN-205 and 8000 with MLTC-1. The ATP content of the cells was measured after incubating the cells for three days at 37° C. with 5% CO2.
(§4) The growth medium was removed by turning the plates over, and 200 μl of ATP extraction reagent, Somalyze, were added to the wells. The plates were then incubated for 30 minutes at room temperature. The ATP measurement was performed with Luminoskan luminometer (Labsystems Oy, Helsinki, Finland) at 22° C. 20 μl of ATP monitoring reagent containing luciferin and luciferase was dispensed, and an integral measurement of 10 s with 2 s lag time was performed for each well. All reagents used were supplied by Bio-Orbit Oy, Turku, Finland.
(§5) The direct luminometer output (in relative light units, RLUS) was used to calculate the cytotoxic effect. This light signal is directly proportional to the amount of […] in a wide range (determined with Bio-Orbit ATP standard, data not shown). On the other hand, the amount of ATP is directly proportional to the amount of living cells (Kangas et al., 1984). The results are expressed as percentages of the control value of untreated cells. An IC50 value (the drug concentration resulting to an ATP signal of 50% of the untreated control signal) was graphically estimated from the % of control vs. drug concentration plot.

[2] = system: MES-SA/D×5 uterine sarcoma cells (doxorubicin-resistant, MDR); assay: Cytotoxicity assay, luminescence ATP detection, MES-SA/D×5; type: cell-based, human; conditions: Homo sapiens, 72 h; MES-SA/D×5 cells, three days incubation, ATP content; highest concentration 10^-5 M; read-out: ED50 (nM) MES-SA/D × 5
Description: as §1, §2, §3, §4, §5

B16-F0 melanoma = assay: Cytotoxicity assay, ATP detection, B16-F0; type: cell-based, mouse; conditions: Mus musculus, B16F0; B16-F0 cells in vitro; read-out: ED50 B16-F0
Description: as §3, §4, §5
(§6) H075-4a was also tested with several mouse cell lines in vitro (all were purchased from ATCC, Rockville, Md., USA): Lewis lung carcinoma (LL/2) (CRL-1642), B16-F0 melanoma (CRL-6322), B16-F1 melanoma (CRL-6323), KLN-205 lung squamous cell carcinoma (CRL-1453) and MLTC-1 leydig cell tumor (CRL-2065) using daunomycin, aclarubicin and H075-1a (MA 144U1) as references.
(§7) All cells grew as monolayers and were cultured at 37° C. with 5% CO2 according to ATCC standard instructions for each cell line: LL/2 in Dulbecco's modified Eagle's medium with 4.5 g/l glucose and 10% FCS, B16-F0 and B16-F1 in MEM (Eagle) in Earle's BSS with non-essential amino acids and 10% FCS, KLN-205 in MEM (Eagle) in Earle's BSS with non-essential amino acids and 10% FCS, MLTC-1 in RPMI 1640 with 25 mM HEPES and 10% FBS. All media were purchased from Gibco BRL, the serum was Gibco BRL Foetal Bovine Serum. […]

B16-F1 melanoma = assay: Cytotoxicity assay, ATP detection, B16-F1; type: cell-based, mouse; conditions: Mus musculus; B16-F1 cells in vitro; read-out: ED50 B16-F1
Description: as §3, §4, §5, §6, §7

[3] = system: KLN-205 lung squamous cell carcinoma; assay: Cytotoxicity assay, ATP detection, KLN-205; type: cell-based, mouse; conditions: Mus musculus; KLN-205 cells in vitro; read-out: ED50 KLN-205
Description: as §3, §4, §5, §6, §7

[4] = system: Lewis lung carcinoma (LL/2); assay: Cytotoxicity assay, ATP detection, LL/2; type: cell-based, mouse; conditions: Mus musculus; LL/2 cells in vitro; read-out: ED50 LL/2
Description: as §3, §4, §5, §6, §7

MLTC-1 leydig cell tumor = assay: Cytotoxicity assay, ATP detection, MLTC-1; type: cell-based, mouse; conditions: Mus musculus, Leydig; MLTC-1 cells in vitro; read-out: ED50 MLTC-1
Description: as §3, §4, §5, §6, §7

SK-N-MC = assay: Cytotoxicity assay, ATP detection, SK-N-MC; type: cell-based; conditions: SK-N-MC cells in vitro; read-out: ED50 SK-N-MC
[5] = system: L1210 mouse lymphocytic leukemia cells; assay: Flow cytometry (mode of action), cell cycle phases; type: cell-based; conditions: for G1 (%) / G2 (%) / S + M (%) / Cells (1000/ml): L1210 cells, 24 h incubation; for G1 (%): percentage of cells in phase G1; for G2 (%): percentage of cells in phase G2; for S + M (%): percentage of cells in phases S + M; for Cells (1000/ml): starting cell number 46000 cells/ml
Description: L1210 mouse lymphocytic leukemia cells growing in suspension culture were maintained at exponential growth in Dulbecco's modified Eagle's medium with 4.5 g/l glucose and 10% FBS, at 37° C. with 5% CO2. The experiments were started by adding the ethanol-dissolved anthracyclines, in amounts yielding to the appropriate final concentrations, to 25 cm^2 cell culture flasks. After the ethanol had evaporated, 5 ml of an approximately 50 000 cells per ml suspension was added to the flasks. Flow cytometric analysis was made of the original cell suspension and after one, two and three days incubation with or without the drugs.
Cells were prepared for flow cytometric DNA analysis according to the method of Vindelov et al. (1985). The analysis was performed with an Epics XL flow cytometer (Coulter Corporation, Miami, Fla.). Samples were illuminated with a […] air-cooled argon ion laser (488 nm) and the fluorescence of propidium iodide was detected through 620-nm band pass filter. The number of cells in each sample was separately counted by adding an internal calibrator (50 μl of a solution containing 1×10^6 Fluoresbrite beads/ml) to 50 μl of cell suspension.
Based on the flow cytometric studies, the cell cycle phases for the cells studied could be detected. Phase G1 is the stage for RNA and protein synthesis, but not for replication. Transition from phase G1 to phase S means the initiation of replication, and the phase will last until all of the DNA has been replicated. The period from phase S up to mitosis (M) is phase G2.

[6] = system: MES-SA/D×5 uterine sarcoma cells (doxorubicin-resistant, MDR); conditions: relative to MES-SA; Harker and Sikic, 1985; cited from earlier work

| Compound | EC50 [1] [nM] | EC50 [2] [nM] | EC50 (B16-F0 melanoma) [nM] | EC50 (B16-F1 melanoma) [nM] | EC50 [3] [nM] | EC50 [4] [nM] | EC50 (MLTC-1 leydig cell tumor) [nM] | EC50 (SK-N-MC) [nM] | G1 (%) ([5]; concentration 1 × 10^−8M) | G2 (%) ([5]; concentration 1 × 10^−8M) | S + M (%) ([5]; concentration 1 × 10^−8M) | Cells (1000/ml) ([5]; concentration 1 × 10^−8M) | G1 (%) ([5]; concentration 3.3 × 10^−8M) | G2 (%) ([5]; concentration 3.3 × 10^−8M) | S + M (%) ([5]; concentration 3.3 × 10^−8M) | Cells (1000/ml) ([5]; concentration 3.3 × 10^−8M) | cell cycle phase in which cells are arrested ([5]; flow cytometric DNA analysis) | resistance of MES-SA/D×5 variant to doxorubicin [6] [fold] |
| --- | --- | --- | --- | --- | --- | --- | --- | --- | --- | --- | --- | --- | --- | --- | --- | --- | --- | --- |
| CC[C@@]1(O)C[C@H](O[C@H]2C[C@H](N(C)C)[C@H](O[C@H]3C[C@H](O)[C@H](O[C@H]4CCC(=O)[C@H](C)O4)[C@H](C)O3)[C@H](C)O2)c2c(cc3c(c2O)C(=O)c2c(O)cccc2C3=O)[C@H]1C(=O)OC [Aclarubicin] | 2 | 12 | 3 | 4 | 12 | 5 | 70 | 9 | 43 | 14 | 43 | 101 1000/ml | 47 | 29 | 24 | 78 1000/ml | phase G1 | – |
| COc1cccc2c1C(=O)c1c(O)c3c(c(O)c1C2=O)C[C@@](O)(C(=O)CO)C[C@@H]3O[C@H]1C[C@H](N)[C@H](O)[C@H](C)O1 [doxorubicin] | – | – | – | – | – | – | – | – | – | – | – | – | – | – | – | – | – | 100 |
